The subject of assay [1] is MAML1 and Notch1 occupancy on HES1 promoter in OE33 and 786-0 cells. The assay can be described thus: Chromatin immunoprecipitation (ChIP) on the HES1 locus. The format is cell-based, human. The following applies: 24 hours. Here is the method:
(§1) The effect of inhibitor treatment on the assembly of the NTC in cells was investigated.
Cells (8×10^6 OE33 cells or 10×10^6 786-0 cells) were plated onto a 15 cm tissue culture dish a day prior to treatment. Cells were then treated for 24 hours with (N—[N-(3,5-difluorophenacetyl)-L-alanyl]-S-phenylglycine t-butyl ester (“DAPT”, 5 μM), Inhibitor No. 1-134-83 (25 μM), or DMSO vehicle. Following treatment, cells were cross-linked for 10 minutes with 1% formaldehyde. The reaction was then stopped by adding […] glycine. Cells were collected in SDS lysis buffer (1% SDS, 10 mM EDTA, 50 mM Tris-HCl pH 8.0) and sonicated to yield chromatin fragments of approximately 300 to 800 bp (8 minutes at high level for OE33 cells; 5 minutes at medium level for 786-0 cells in BIORUPTOR UCD-200 sonicator). Lysates were divided into equal parts and immunoprecipitated with either α-Notch1 (A301-894A, Bethyl Laboratories) or α-MAML1 (12166s, Cell Signaling Technology) antibody. Protein:DNA immunoprecipitates were then reverse cross-linked at 65° C. in 200 mM NaCl for 4 hours, followed by incubation with RNase A and proteinase K. DNA was then purified using a PCR purification kit (28104,
Qiagen). Immunoprecipitated DNA was then detected by SYBR green qPCR using HES1 specific oligonucleotide primers (forward: 5′CGTGTCTCCTCCTCCCATT3′; reverse: 5′GGGGGATTCCGCTGTTAT3′).

Assay [2] concerns cancer cell lines (OE33, 786-0 and panel). The assay can be described thus: Colony formation assay. Format: cell-based, human. The settings on record: 7 days. The method, then:
(§2) The effect of inhibitor treatment on Notch-target gene transcription also was investigated (FIGS. 2C and 2D). […] As proof of specificity, transcription of the housekeeping gene, HPRT, was unaltered in treated cells. To test the effects of Notch inhibition on proliferation, a colony formation assay was performed.
(§3) To extend the analysis of tumor cell growth inhibition, several commonly used cancer cell lines were selected to test for sensitivity to Inhibitor No. 1-134-83 (FIGS. 3A and 3B). […] In this analysis, sensitivity to DAPT is taken to indicate specific inhibition of Notch activity. […] Cells that are refractory to DAPT were equally resistant to Inhibitor No. 1-134-83.
Cells were plated into a 6 well plate at a density of 2000 cells/cm^2. Inhibitor treatment commenced 24 hours post seeding, and the media containing inhibitor was changed every 48 hours thereafter. After 168 hours, cells were fixed with ice cold methanol for 10 minutes, stained for 1 hour with crystal violet, de-stained with water, and allowed to dry.

Assay [3] relates to NICD in OE33 and 786-0 cells. Put plainly: Western analysis of NICD levels. The format is cell-based, human. The following applies: OE33 and 786-0 cell lysates. The method, then:
as §1
Protein analysis was carried out using conventional SDS-PAGE and transfer techniques. Blots were probed with the indicated antibody (“Ab”), using standard conditions, and detected using enhanced chemiluminescence (“ECL”). The following Ab were used: anti-Notch1 (ab52627, abcam), anti-Notch1^val1744 (4147S, Cell Signaling Technology) and anti-GAPDH (ab9483, Abcam).

Assay [4] relates to Notch target gene transcription. Put plainly: RT-qPCR of Notch target genes in cancer cell lines. Format: cell-based, human. Here is the method:
as §2, §3
RT-PCR analysis was performed using TaqMan probes according to manufacturer's instructions. In particular, 80 ng of RNA equivalent was used per reaction. Gene expression was normalized to the TATA-binding protein (“TBP”) gene. As a control, hypoxanthine phosphoribosyltransferase 1 (“HPRT”) gene expression was also monitored.
On the technique in general: In qPCR the cycle at which signal appears reflects the starting amount.

In assay [5] the test system is esophageal adenocarcinoma PDX tumors. The assay can be described thus: Esophageal adenocarcinoma patient-derived xenograft (PDX). The following applies: NSG mice, two PDX models, daily IP, 1-134-83 15 mg/kg, DAPT 20 mg/kg. The format is in vivo, mouse. The method, then:
The effect of the inhibitors of the disclosure on the growth of an established tumor also was investigated using two independent esophageal adenocarcinoma patient-derived xenograft (“PDX”) models. Tumors were established in NSG mice to the size of 250 mm^3 prior to the initiation of treatment. Mice were dosed daily via intraperitoneal (“IP”) injection with either Inhibitor No. 1-134-83 (15 mg/kg) or DAPT (20 mg/kg), and compared to DMSO vehicle control. […] Following 24 days of treatment, tumors were harvested and Notch-target gene transcription was evaluated. […] (FIG. 4) Six-week-old NOD-SCID gamma (“NSG”) mice were purchased from Jackson Laboratories and CD-1 Nude mice were purchased from Charles River Laboratories. For the cell line based xenografts assay, 5×10^6 OE19 cells in 200 μl serum-free culture medium were injected subcutaneously per mouse. The mice in the treatment group were injected with 15 mg/kg of Inhibitor No. 1-134-83 daily, and the mice in the control group were injected with the same volume of vehicle (DMSO). Subcutaneous tumor growth was measured once every 4 days using calipers along with body weight. The experiment was discontinued on day 28. PDX cancer models were established, as described in Zhang et al, Establishment of Patient-Derived Xenograft (PDX) Models of Human Breast Cancer, Current Protocols in Mouse Biology, 3:21-29 (2013), in NSG mice. Briefly, 10 mm^3 pieces of primary EAC29 PDX tumor were transplanted subcutaneously into the flanks of NSG mice using a 13G telescopic needle. When the tumors reached 200 mm^3, the mice were split into two uniform groups for treatment. Compound 1-134-83 (15 mg/kg) and vehicle were administered daily by inraperitoneal (“IP”) injection for 24 days. Tumor growth was monitored every 4 days and tumor volume was measured by the formula: Volume=(S×S×L)/2, where S and L are the short and long dimensions. The xenograft tumors were harvested, weighed and samples were subjected to histological examination and by qPCR.
(In xenograft studies the graft and the host belong to different species.)

For a further assay, the target named is CSL (Homo sapiens, UniProt Q06330). The assay can be described thus: Surface plasmon resonance binding to CSL. The following applies: SPR, equilibrium response fitted to 1:1 binding model. The method, then:
(§4) The inhibitors described herein were subjected to surface plasmon resonance (“SPR”) to determine their binding constants to the NICD and CSL components of the NTC. In particular, the target protein (NICD1) was immobilized on the dextran surface of the SPR sensor chip. Through a microflow system, a solution with the inhibitor was injected over the immobilized protein layer. The inhibitor bound to the immobilized protein, which led to an increase in SPR signal, indicating association of the ligand to the target protein. After 45 seconds, buffer solution was injected on the microfluidics that dissociated the bound complex between the ligand and the inhibitor. As the inhibitor dissociated from the ligand, a decrease in SPR signal was observed. The equilibrium dissociation constant KD was determined by plotting the equilibrium response (Req) as a function of the concentration of the ligand, and fitting the data to a 1:1 binding model. The results are listed in […].
A general note: In SPR one partner is held on a chip, and binding of the other changes the refractive index at the surface.

For a further assay, the target named is T1, NICD1 (Homo sapiens, UniProt P46531).
T1 construct: the intracellular domain of Notch (“NICD”)
T1 sequence (P46531 1754-2555 limits assumed): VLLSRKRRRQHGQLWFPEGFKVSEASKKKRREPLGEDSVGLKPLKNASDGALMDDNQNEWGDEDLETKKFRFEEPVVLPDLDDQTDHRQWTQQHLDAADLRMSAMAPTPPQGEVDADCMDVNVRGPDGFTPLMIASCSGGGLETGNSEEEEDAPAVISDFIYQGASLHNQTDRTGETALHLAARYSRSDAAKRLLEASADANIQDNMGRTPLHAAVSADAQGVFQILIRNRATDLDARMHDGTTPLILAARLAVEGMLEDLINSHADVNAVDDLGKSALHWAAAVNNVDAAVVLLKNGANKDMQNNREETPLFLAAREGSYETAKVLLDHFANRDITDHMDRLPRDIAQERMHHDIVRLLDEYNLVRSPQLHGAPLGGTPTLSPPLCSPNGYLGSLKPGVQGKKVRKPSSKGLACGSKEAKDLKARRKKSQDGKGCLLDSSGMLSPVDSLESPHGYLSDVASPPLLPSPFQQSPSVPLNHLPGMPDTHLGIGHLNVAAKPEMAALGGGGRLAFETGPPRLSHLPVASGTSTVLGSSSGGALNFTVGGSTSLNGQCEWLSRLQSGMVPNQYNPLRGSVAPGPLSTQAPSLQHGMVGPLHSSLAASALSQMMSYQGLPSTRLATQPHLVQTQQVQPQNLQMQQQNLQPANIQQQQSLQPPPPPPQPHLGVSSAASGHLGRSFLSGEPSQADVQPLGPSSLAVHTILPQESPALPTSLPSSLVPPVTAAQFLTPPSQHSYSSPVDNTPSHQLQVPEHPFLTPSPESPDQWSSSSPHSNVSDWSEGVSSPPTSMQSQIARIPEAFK
The assay can be described thus: Surface plasmon resonance binding to immobilized NICD. The following applies: SPR, equilibrium response fitted to 1:1 binding model. The method, then:
as §4

Assay [6] addresses T2, Notch transcriptional activation complex (CSL, Notch1, MAML1 on DNA) (Homo sapiens, UniProt P46531+Q06330).
T2 construct: the intracellular domain of Notch (“NICD”); made in house; host or cells: SF21 insect cells (baculovirus)
Put plainly: Notch complex assembly assay (ALPHASCREEN). The format is biochemical. From the text:
An in vitro assay was developed to monitor the assembly of the Notch transcriptional complex (“NTC”) on DNA. The NTC, which includes the Notch, Mastermind (“MAML1”), and CSL proteins, binds to a specific DNA sequence in a CSL-dependent manner. For the assay, baculovirus produced CSL, Notch, and MAML1 were mixed together with a biotinylated DNA oligomer containing the CSL target sequence. Assembly of the NTC on DNA was then monitored with the proximity-based ALPHASCREEN (Perkin Elmer) using streptavidin and protein A beads (FIGS. 1A and 1B). A signal results when MAML1 is recruited to CSL bound DNA.
All recombinant proteins were expressed using baculovirus expression vectors in SF21 cells and purified. Unless otherwise stated, all assays contained 125 fmol of double stranded oligonucleotide, CSL, Notch1 and MAML1 proteins. Reactions were carried out in Tris-buffered saline with 0.1% Tween (“TBS-T”) buffer containing 0.2% bovine serum albumin (“BSA”) and 100 ug/mL salmon sperm DNA. Briefly, the Notch complex was assembled on a biotinylated double stranded (“DS”) oligonucleotide harboring one CSL binding site (5′-[…]-3′). Complex assembly was quantitated using ALPHASCREEN technology (Perkin Elmer). Proteins in the complexes were detected using specific antibodies to either MAML1 (Cell signaling, D3K7B), Notch1 (Abcam, 52627) or CSL (anti-His, Abcam 18184). Streptavidin conjugated acceptor beads (Perkin Elmer, 6760002) were used to bind the DS oligonucleotide, and Protein-A conjugated donor beads (Perkin Elmer, 6760137) were used to detect antibody-coated proteins. For screening compounds, Notch transcriptional activation complex (“NTC”) components were added to wells that already contained the inhibitor to be assayed and allowed to incubate for 30 minutes. The ALPHASCREEN plate (Perkin Elmer, 6008350) was then read on an Envision Plate reader (Perkin Elmer) as specified by the manufacturer.
Determination of Equilibrium Dissociation Constants (KD) and Half Maximal Inhibitory Concentrations (IC50)

Each structure is given as a SMILES string.

Chain of CSL (Q06330 whole entry): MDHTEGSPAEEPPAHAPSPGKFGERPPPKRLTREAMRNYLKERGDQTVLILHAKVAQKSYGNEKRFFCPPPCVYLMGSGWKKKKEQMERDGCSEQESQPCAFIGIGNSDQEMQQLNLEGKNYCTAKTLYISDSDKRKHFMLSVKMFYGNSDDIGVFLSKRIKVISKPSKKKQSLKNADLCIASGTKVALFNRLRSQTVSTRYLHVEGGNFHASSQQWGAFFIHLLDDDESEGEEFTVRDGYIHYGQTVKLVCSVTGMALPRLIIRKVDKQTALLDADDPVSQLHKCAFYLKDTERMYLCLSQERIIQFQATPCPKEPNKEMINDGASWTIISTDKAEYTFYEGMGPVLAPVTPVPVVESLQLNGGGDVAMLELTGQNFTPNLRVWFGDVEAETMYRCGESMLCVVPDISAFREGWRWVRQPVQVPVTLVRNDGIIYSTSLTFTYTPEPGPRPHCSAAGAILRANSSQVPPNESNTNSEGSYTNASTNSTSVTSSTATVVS
T2 sequence (P46531 1754-2555 limits assumed): as the sequence (P46531 1754-2555 limits assumed) above
T2 sequence (Q06330 whole entry, the tested form may be a part): as the sequence (Q06330 whole entry) above

`C[C@H](NC(=O)Cc1cc(F)cc(F)c1)C(=O)N[C@H](C(=O)OC(C)(C)C)c1ccccc1` [DAPT, N—[N-(3,5-difluorophenacetyl)-L-alanyl]-S-phenylglycine t-butyl ester, reference compound]: the “occupancy of MAML1 on the HES1 promoter” value in assay [1] is recorded as “decreased”. The “occupancy of NOTCH1 on the HES1 promoter” value in assay [1] is listed as “decreased”. For the same molecule, the colony formation result in assay [2] (786-0 and OE33 cells) is reported as “inhibited the cell colony forming ability of cells”; in assay [2] (sensitive (Notch dependent) cell lines), “decrease in colony formation”. For the same molecule, in assay [3], the “levels of NICD in cells” value is on record as “decrease in the NICD pool”. The “Notch target gene transcription” value in assay [4] (OE33 and 786-0 cells, qPCR) is “significant decrease”; in assay [4] (insensitive cancer cell lines of the panel, 48 hrs), “do not show a statistically significant reduction”; in assay [4] (sensitive cancer cell lines of the panel, 48 hrs, DAPT 10, 1-134-83 15 and 25 μM), “significantly reduced”. Also, in assay [4] (OE33 and 786-0 cells, qPCR), the “transcription of control gene HPRT” value was “not affected”. In assay [5], the “growth of established tumor” value is given as “stunted growth to a similar level achieved with DAPT treatment”.
As for `COc1cccc(/C=C2\SC(=S)N(CC(=O)N(C)C)C2=O)c1O` [NADi-203, (Z)-2-(5-(2-Hydroxy-3-methoxybenzylidene)-4-oxo-2-thioxothiazolidin-3-yl)-N,N-dimethylacetamide], the values for the Kd on CSL and on NICD1 were 6.4 ± 0.7 µM and 5.7 ± 0.9 µM, respectively. Besides, the IC50 in assay [6] came out at 0.5 µM.
The like results for `CN(C)C(=O)CN1C(=O)/C(=C/c2cc(F)ccc2O)SC1=S` [NADi-239, (Z)-2-(5-(5-Fluoro-2-hydroxybenzylidene)-4-oxo-2-thioxothiazolidin-3-yl)-N,N-dimethylacetamide] were, in that order, 13 ± 2 µM, 3.7 ± 0.8 µM and 0.5 µM.
Consider `COc1cc(/C=C2\SC(=S)NC2=O)ccc1OCC(=O)O` [1-134-02], for which the Kd on CSL was 3.6 ± 0.9 µM; on NICD1, 2.9 ± 0.6 µM. This molecule gave an IC50 in assay [6] of 0.5 µM.
Turning to `C=CCc1cc(/C=C2\SC(=S)NC2=O)cc(OC)c1OCC(=O)O` [1-134], the Kd on CSL was found to be 15 ± 3 µM; on NICD1 it was 17 ± 5 µM. In assay [6], this molecule returned an IC50 of 6 µM.
In the case of `O=C(O)COc1ccccc1/C=C1\SC(=S)NC1=O` [NADi-090], the Kd on CSL was found to be 3.4 ± 0.7 µM; at NICD1 it was 25 ± 4 µM. It took 0.07 µM to reach half-maximal inhibition in assay [6] (IC50).

What is called Kd is the equilibrium constant for the complex coming apart. The IC50 is the concentration that gives 50% inhibition. The low end stands for inhibition by little substance, the high end for a need for much substance.

These data come from patent US10501413B2, “Inhibitors of the Notch transcriptional activation complex and methods for use of the same” (UNIVERSITY OF MIAMI, priority 2015, dated 2019).
